The conditions of data set [1]: cited from earlier work.
Data set [2] in a line: Release of antibiotic from hydrogel or PBS in dialysis chamber. The data set is classed as physicochemical. Here is the method: For this assessment, a 0.5 ml sample of hydrogel plus drug or PBS plus drug was placed into a medi-dialysis chamber, and the chamber was placed in a beaker containing 100 ml of PBS. The remaining amount of drug in the dialysis chamber was monitored using UV spectroscopy at various time points. […] The release was monitored as described above. […] Another drug release study was performed, with Moxi-FB and Besi-HCl as the antibiotics, a hydrogel with 7.5 mg/ml CMHA-S, and the antibiotics incorporated at 10 mg/ml. For this study, the samples were placed in a dialysis chamber that was then placed in a tube that contained 10 ml of PBS. The dialysis chamber was transferred to a new tube at each time point, and the dialysate was analyzed by UV absorption (rather than the material inside the dialysis chamber), and the released amount of drug was calculated (rather than the amount remaining). In this experimental set-up, drug release from the hydrogel was slower than from PBS (FIGS. 4A and 4B). Despite the poor water solubility of Besi-HCl compared to Moxi-FB, Besi-HCl was still released from the hydrogel.

The nature of data set [3]: pH by pH meter. The class given is physicochemical. The note with it: antibiotic 1 mg/ml incorporated in hydrogel (CMHA-S about 7.5 mg/ml). Here is the method: (§1) Viscosity, pH, and refractive index (RI) were measured for hydrogels described in Example 2 with and without antibiotic incorporated. […] Viscosity was determined as described in Example 1. RI was measured with a refractometer and pH was measured with a pH meter.

Data set [4] deals with Pseudomonas aeruginosa. The experiment in a line: Zone of inhibition (ZOI) study of dialysate samples. The class given is cell-based. The note with it: P. aeruginosa. The protocol: (§2) To verify the efficacy of a drug in the hydrogel, zone of inhibition (ZOI) studies were conducted. […] Samples of the dialysate were collected at 0, 1, 2, 4, and 8 hours. Filter paper disks were soaked in each sample, placed on a bacteria-inoculated plate, and the ZOIs were compared between PBS group and hydrogel group.

The subject of data set [5] is Staphylococcus aureus. The data set is described as above. The class given is cell-based. As to conditions: S. aureus. Here is the method: as §2
A short description of data set [6]: Rheological testing (parallel plate rheometer): viscosity and shear-thinning. The data set is classed as physicochemical. As to conditions: antibiotic 1 mg/ml incorporated in hydrogel (CMHA-S about 7.5 mg/ml). Here is the method: Thiol-modified carboxymethyl HA (CMHA-S) was synthesized as described in Lawyer et al. and Wendling et al., with a thiol modification of 0.1, 0.2, 0.4, or 0.7 μmol thiol/mg. Hydrogels were created by dissolving CMHA-S in phosphate-buffered saline (PBS; pH 7.4). The CMHA-S was disulfide crosslinked under continuous mixing with the addition of sodium hypochlorite. Rheological testing was performed using a parallel plate format rheometer with a 25 mm-diameter stainless steel geometry. Samples (5-6 ml) of hydrogel were placed in a 35 mm Petri dish, and the geometry was lowered to a gap of 5 mm. To determine viscosity and shear-thinning, the shear rate was varied from 0.1 to 10 Hz. A decreasing viscosity as shear rate increases indicates shear-thinning behavior. Table 1 provides the thiol modification of the CMHA-S, concentration of CMHA-S, and resultant viscosity of the hydrogel (at 2.5 Hz) for 4 hydrogel formulations.
as §1

Data set [7] in a line: Refractive index by refractometer. The data set is classed as physicochemical. As to conditions: antibiotic 1 mg/ml incorporated in hydrogel (CMHA-S about 7.5 mg/ml). The protocol: as §1
[8] abbreviates: released from PBS (1 mg/ml), dialysate at 4 hrs.
The mark [9] stands for this setting: released from PBS (1 mg/ml), dialysate at 8 hrs.
[10] abbreviates: released from hydrogel (CMHA-S 7.5 mg/ml, drug 1 mg/ml), dialysate at 8 hrs.

The structures appear in SMILES notation. Where a name gives a salt, the structure may show the parent alone. Read-outs that look alike come from different tables or passages of the source. Where only a bound is given, the exact number is not on record here.

With `N[C@@H]1CCCCN(c2c(F)cc3c(=O)c(C(=O)O)cn(C4CC4)c3c2Cl)C1` [Besi-HCl, besifloxacin hydrochloride], in data set [1], the solubility in water result is on record as “about 1 mg/ml”. Also, the “drug release from hydrogel compared with PBS” value in data set [2] (antibiotic 10 mg/ml in hydrogel with 7.5 mg/ml CMHA-S, dialysis chamber in 10 ml PBS, new tube at each time point, dialysate UV) is “slower”.
On to `COc1c(N2C[C@@H]3CCCN[C@@H]3C2)c(F)cc2c(=O)c(C(=O)O)cn(C3CC3)c12` [Moxi-FB, moxifloxacin], for which the solubility in water entry in data set [1] is “about 1 mg/ml”.
For `COc1c(N2C[C@@H]3CCCN[C@@H]3C2)c(F)cc2c(=O)c(C(=O)O)cn(C3CC3)c12` [Moxi-HCl, moxifloxacin hydrochloride], the solubility in water in data set [1] (hydrochloride) is around 20 mg/mL. Also, the pH in data set [3] (hydrochloride) was 7.0. For the same compound, the ZOI in data set [4] (setting [8]) worked out at 24.7 ± 2.8 mm; in data set [4] (setting [9]) it was 20.5 ± 1.8 mm; in data set [4] (released from hydrogel (CMHA-S 7.5 mg/ml, drug 1 mg/ml), dialysate at 1 hrs), 28.7 ± 0.3 mm; in data set [4] (released from hydrogel (CMHA-S 7.5 mg/ml, drug 1 mg/ml), dialysate at 4 hrs), 26.8 ± 1.4 mm; in data set [4] (setting [10]), 26.5 ± 3.2 mm; in data set [5] (released from PBS (1 mg/ml), dialysate at 2 hrs) it was 28.3 ± 1.0 mm. Also, the figures for the ZOI in data set [5] (setting [8]), in data set [5] (setting [9]) and in data set [5] (setting [10]) were 26.5 ± 2.5 mm, 23.5 ± 2.8 mm and 27.2 ± 1.3 mm, respectively. The “Viscosity at 2.5 Hz” value in data set [6] (hydrochloride) amounted to 1.6 Pa · s. In data set [7] (hydrochloride), this compound yielded a Refractive index of 1.3355. Also, the “drug release from hydrogel compared with PBS” value in data set [2] (drug 1 mg/ml in hydrogel #4 (CMHA-S 4.0 mg/ml)) is listed as “slightly slower”; in data set [2] (drug 1 mg/ml in hydrogel (CMHA-S about 7.5 mg/ml), medi-dialysis chamber in 100 ml PBS) it was “only slightly slowed down”. Besides, the “time within which release was complete” value in data set [2] (drug 1 mg/ml in hydrogel #4 (CMHA-S 4.0 mg/ml), medi-dialysis chamber in 100 ml PBS) was at most 4 h.
`NC[C@H]1O[C@H](O[C@H]2[C@H](O)[C@@H](O[C@H]3O[C@H](CO)[C@@H](O)[C@H](N)[C@H]3O)[C@H](N)C[C@@H]2N)[C@H](N)C[C@@H]1O` [Tobramycin, tobramycin]: in data set [1], the solubility in water was above 50 mg/mL. Further, the pH in data set [3] is reported as 8.6. Besides, in data set [6], the “Viscosity at 2.5 Hz” value stood at 1.4 Pa · s. This compound also displayed a Refractive index in data set [7] of 1.3355.

The values above are taken from patent US11376214B2, “Compositions and methods for treatment of ocular diseases” (KIORA PHARMACEUTICALS, INC., priority 2019, dated 2022).
